Experimental data from patent publication US12043600B2, “Microbiocidal compounds” (SYNGENTA CROP PROTECTION AG, priority 2018, dated 2024).

Tests used:
[1] = tested on: Blumeria graminis f. sp. tritici (Erysiphe graminis f. sp. tritici); experiment: Blumeria graminis f. sp. tritici/Wheat/Leaf Disc Preventative (Powdery Mildew on Wheat); type: in vivo; conditions: foliar, wheat leaf disc preventative, compared to untreated control
In short: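 Wheat cv. Kanzler leaf segments on agar sprayed with formulated compound, inoculated with powdery mildew 1 day later and held at 20° C, 60% rh (24 h dark, then 12 h light/12 h dark). Percent disease control versus untreated scored 6-8 days after application.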

[2] = tested on: Monographella nivalis (Microdochium nivale); experiment: Monographella nivalis (Microdochium nivale)/Liquid Culture (Foot Rot Cereals); type: cell-based; conditions: liquid culture, compared to untreated control
In short: (§1)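 Test compound dissolved in DMSO is dispensed first; nutrient broth (potato dextrose) carrying conidia thawed from cryogenic storage follows.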

[3] = tested on: Mycosphaerella arachidis (Cercospora arachidicola); experiment: Mycosphaerella arachidis (Cercospora arachidicola)/Liquid Culture (Early Leaf Spot); type: cell-based; conditions: liquid culture, compared to untreated control
In short: as §1

Plasmopara viticola = experiment: whole plant or invertebrate; type: in vivo; conditions: foliar, read-out: control of Plasmopara viticola
[4] = tested on: Puccinia recondita f. sp. tritici; experiment: Puccinia recondita f. sp. tritici/Wheat/Leaf Disc Preventative (Brown Rust); type: in vivo; conditions: foliar, 200 ppm, wheat leaf disc preventative, compared to untreated control, read-out: control of Puccinia recondita f. sp. tritici
Pyrenophora teres = experiment: Pyrenophora teres/Barley/Leaf Disc Preventative (Net Blotch); type: in vivo; conditions: foliar, 200 ppm, barley leaf disc preventative, compared to untreated control, read-out: control of Pyrenophora teres
Description: Barley leaf segments cv. Hasso are placed on agar in a multiwell plate (24-well format) and sprayed with the formulated test compound diluted in water. The leaf segments are inoculated with a spore suspension of the fungus 2 days after application. […] The data are presented as the percentage of disease control of each compound for the biological tests against G. lagenarium (Example B3), P. recondita preventative (Example B13), P. teres (Example B15) and M. graminicola (Example B19) as described above. The testing rates of each biological test is specifically described in table C1 below.

[5] = tested on: Mycosphaerella graminicola (Septoria tritici); experiment: Mycosphaerella graminicola (Septoria tritici)/Liquid Culture (Septoria Blotch); type: cell-based; conditions: Zymoseptoria tritici; 20 ppm; liquid culture; compared to untreated control
In short: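 Conidia from cryogenic storage mixed into potato dextrose broth and added to microtiter wells already holding DMSO solutions of test compound. Activity expressed as percentage disease control.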

[6] = tested on: Glomerella lagenarium (Colletotrichum lagenarium); experiment: Glomerella lagenarium (Colletotrichum lagenarium)/Liquid Culture (Anthracnose); type: cell-based; conditions: Colletotrichum orbiculare, liquid culture, compared to untreated control
[7] = tested on: Phaeosphaeria nodorum (Septoria nodorum); experiment: Phaeosphaeria nodorum (Septoria nodorum)/Wheat/Leaf Disc Preventative (Glume Blotch); type: in vivo; conditions: Parastagonospora nodorum, foliar, wheat leaf disc preventative, compared to untreated control
In short: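 Wheat cv. Kanzler leaf discs on agar were sprayed with formulated compound diluted in water and inoculated with P. nodorum spores 2 days later. Discs kept at 20 °C, 75% rh, 12 h light/dark; percent disease control versus untreated scored 5–7 days after application.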

Phytophthora infestans = experiment: whole plant or invertebrate; type: in vivo; conditions: in Solanum lycopersicum, foliar, read-out: control of Phytophthora infestans
[8] = tested on: Puccinia recondita f. sp. tritici; experiment: Puccinia recondita f. sp. tritici/Wheat/Leaf Disc Curative (Brown Rust); type: in vivo; conditions: foliar, wheat leaf disc curative, compared to untreated control
In short: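 Curative leaf-disc test on wheat cv. Kanzler segments on agar, spore-inoculated and kept dark at 19° C, 75% rh; formulated compound in water applied 1 day after inoculation. Incubated at 19° C, 75% rh, 12 h light/12 h dark; percent disease control versus untreated scored 6-8 days after application.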

[9] = tested on: Magnaporthe grisea (Pyricularia oryzae); experiment: whole plant or invertebrate; type: in vivo; conditions: foliar, read-out: control of Magnaporthe grisea
Phakopsora pachyrhizi = experiment: Phakopsora pachyrhizi/Soybean/Preventative (Soybean Rust); type: in vivo; conditions: foliar, 288 h, 200 ppm, soybean leaf disc preventative, compared to untreated control, read-out: control of Phakopsora pachyrhizi
[10] = tested on: Botryotinia fuckeliana (Botrytis cinerea); experiment: Botryotinia fuckeliana (Botrytis cinerea)/Liquid Culture (Gray Mould); type: cell-based; conditions: liquid culture, compared to untreated control
Method: Conidia of the fungus from cryogenic storage are directly mixed into nutrient broth (Vogels broth). After placing a (DMSO) solution of test compound into a microtiter plate (96-well format), the nutrient broth containing the fungal spores is added.

Row | SMILES | pest or weed control at 200 ppm [1] | inhibition of growth at 20 ppm [2] | inhibition of growth at 20 ppm [3] | pest or weed control at 200 ppm (Plasmopara viticola) | pest or weed control at 200 ppm [4] | pest or weed control at 200 ppm (Pyrenophora teres) | inhibition of growth at 20 ppm [5] | melting point | inhibition of growth at 20 ppm [6] | pest or weed control at 200 ppm [7] | pest or weed control at 200 ppm (Phytophthora infestans) | pest or weed control at 200 ppm [8] | pest or weed control at 200 ppm [9] | pest or weed control at 200 ppm (Phakopsora pachyrhizi) | inhibition of growth at 20 ppm [10]
1 | CCc1ccc(-n2ccc(C(F)(F)F)n2)cc1O/C(=C\OC)C(=O)OC [Compound E-109, methyl (Z)-2-[2-ethyl-5-[3-(trifluoromethyl)pyrazol-1-yl]phenoxy]-3-methoxy-prop-2-enoate] | ≥ 80% | ≥ 80% | ≥ 80% | ≥ 80% | ≥ 80% | ≥ 80% | ≥ 80% | 135 to 137 °C | – | – | – | – | – | – | –
2 | CCON=C(C)c1cnn(-c2ccc(C)c(O/C(=C\OC)C(=O)OC)c2)n1 [Compound F-12, methyl (Z)-2-[5-[4-(N-ethoxy-C-methyl-carbonimidoyl)triazol-2-yl]-2-methyl-phenoxy]-3-methoxy-prop-2-enoate] | ≥ 80% | ≥ 80% | ≥ 80% | ≥ 80% | ≥ 80% | ≥ 80% | ≥ 80% | 113 to 116 °C | ≥ 80% | ≥ 80% | ≥ 80% | ≥ 80% | ≥ 80% | – | –
3 | CO/C=C(\Oc1cc(-n2cc(Cl)c(OC(C)C)n2)ccc1C)C(=O)OC [Compound E-12, methyl (Z)-2-[5-(4-chloro-3-isopropoxy-pyrazol-1-yl)-2-methyl-phenoxy]-3-methoxy-prop-2-enoate] | – | ≥ 80% | ≥ 80% | ≥ 80% | ≥ 80% | ≥ 80% | ≥ 80% | 104 to 107 °C | ≥ 80% | – | ≥ 80% | – | ≥ 80% | – | –
4 | CO/C=C(\Oc1cc(-n2ccc(I)n2)ccc1C)C(=O)OC [Compound E-78, methyl (Z)-2-[5-(3-iodopyrazol-1-yl)-2-methyl-phenoxy]-3-methoxy-prop-2-enoate] | ≥ 80% | ≥ 80% | ≥ 80% | ≥ 80% | ≥ 80% | ≥ 80% | ≥ 80% | 156 to 159 °C | ≥ 80% | ≥ 80% | ≥ 80% | – | ≥ 80% | – | –
5 | CO/C=C(\Oc1cc(-n2cc(Cl)c(C3CCCCC3)n2)ccc1C)C(=O)OC [Compound E-112, methyl (Z)-2-[5-(4-chloro-3-cyclohexyl-pyrazol-1-yl)-2-methyl-phenoxy]-3-methoxy-prop-2-enoate] | – | ≥ 80% | ≥ 80% | ≥ 80% | – | ≥ 80% | – | 150 to 152 °C | ≥ 80% | ≥ 80% | – | ≥ 80% | ≥ 80% | – | –
6 | CO/C=C(\Oc1cc(-n2ccc(C3CCCCC3)n2)c(F)cc1C)C(=O)OC [Compound E-114, methyl (Z)-2-[5-(3-cyclohexylpyrazol-1-yl)-4-fluoro-2-methyl-phenoxy]-3-methoxy-prop-2-enoate] | ≥ 80% | ≥ 80% | ≥ 80% | ≥ 80% | ≥ 80% | ≥ 80% | ≥ 80% | – | ≥ 80% | ≥ 80% | ≥ 80% | ≥ 80% | ≥ 80% | – | –
7 | C=C(C)c1cnn(-c2ccc(C)c(O/C(=C\OC)C(=O)OC)c2)n1 [Compound F-11, methyl (Z)-2-[5-(4-isopropenyltriazol-2-yl)-2-methyl-phenoxy]-3-methoxy-prop-2-enoate] | ≥ 80% | ≥ 80% | ≥ 80% | ≥ 80% | ≥ 80% | ≥ 80% | ≥ 80% | – | ≥ 80% | ≥ 80% | ≥ 80% | ≥ 80% | ≥ 80% | – | –
8 | CC#Cc1ccn(-c2ccc(C)c(O/C(=C\OC)C(=O)OC)c2)n1 [Compound E-2, methyl (Z)-3-methoxy-2-[2-methyl-5-(3-prop-1-ynylpyrazol-1-yl)phenoxy]prop-2-enoate] | – | ≥ 80% | ≥ 80% | ≥ 80% | ≥ 80% | ≥ 80% | ≥ 80% | 175 to 179 °C | – | ≥ 80% | – | – | ≥ 80% | ≥ 50% | –
9 | CO/C=C(\Oc1cc(-n2cc(Cl)cn2)ccc1C)C(=O)OC [Compound E-54, methyl (Z)-2-[5-(4-chloropyrazol-1-yl)-2-methyl-phenoxy]-3-methoxy-prop-2-enoate] | ≥ 80% | ≥ 80% | ≥ 80% | ≥ 80% | ≥ 80% | ≥ 80% | ≥ 80% | – | ≥ 80% | ≥ 80% | ≥ 80% | – | – | – | ≥ 80%
10 | CO/C=C(\Oc1cc(-n2ccc(C(F)(F)F)n2)ccc1C1CC1)C(=O)OC [Compound E-108, methyl (Z)-2-[2-cyclopropyl-5-[3-(trifluoromethyl)pyrazol-1-yl]phenoxy]-3-methoxy-prop-2-enoate] | ≥ 80% | ≥ 80% | ≥ 80% | – | ≥ 80% | ≥ 80% | ≥ 80% | 130 to 132 °C | – | – | – | – | – | – | –
11 | CO/C=C(\Oc1cc(-n2ccc(C(F)(F)Cl)n2)ccc1C)C(=O)OC [Compound E-118, methyl (Z)-2-[5-[3-[chloro(difluoro)methyl]pyrazol-1-yl]-2-methyl-phenoxy]-3-methoxy-prop-2-enoate] | ≥ 80% | ≥ 80% | ≥ 80% | ≥ 80% | ≥ 80% | ≥ 80% | ≥ 80% | 146 to 148 °C | ≥ 80% | ≥ 80% | ≥ 80% | ≥ 80% | ≥ 80% | – | –
12 | CO/C=C(\Oc1cc(-n2cc(C)c(C(F)(F)F)n2)ccc1C)C(=O)OC [Compound E-75, methyl (Z)-3-methoxy-2-[2-methyl-5-[4-methyl-3-(trifluoromethyl)pyrazol-1-yl]phenoxy]prop-2-enoate] | ≥ 80% | ≥ 80% | ≥ 80% | ≥ 80% | ≥ 80% | ≥ 80% | ≥ 80% | 131 to 134 °C | – | ≥ 80% | – | – | – | – | ≥ 80%
